Measurements taken from publication PMC12021911, “Comparative evaluation of antimicrobial peptides: effect on formation, metabolic activity and viability of Klebsiella pneumoniae biofilms” (Frontiers in Microbiology, 2025).
≈ marks a conversion by molar mass, not a printed value. Where two headings read alike, the source gives them in different places. Bridge positions count the residues as written; N and C are the ends. Square brackets hold non-standard residues; d marks the D form. Peptide text beside a SMILES is read from it. * marks the point of attachment. X1 = CC[C@H](C)CCCCC(=O)*; Dab = NCC[C@H](N)C(=O)O

Key:
Assay type in all cases: cell-based, Klebsiella pneumoniae
[1] = test system: K. pneumoniae 17349; test: microbe, parasite or virus in culture
Method: (§1) Three different strains of K. pneumoniae were investigated in this study which were originally isolated from a human, a pig and a dog (Table 2) and characterized in previous studies ([Krieger et al., 2021]; [Krieger et al., 2022]). Minimum inhibitory concentration (MIC) values were determined according to EUCAST guidelines by microdilution test and are shown in Supplementary Table S1.
(§2) Table S1 Minimum inhibitory concentration (MIC) values of the three K. pneumoniae strains,
(§3) determined according to EUCAST guidelines by microdilution test.
(§4) MIC [µg/mL] of indicated antibiotics

[2] = test system: K. pneumoniae 42KC-108224-1; test: microbe, parasite or virus in culture
Method: as §1, §2, §3, §4

[3] = test system: K. pneumoniae IMT40061; test: microbe, parasite or virus in culture
Method: as §1, §2, §3, §4

[4] = test system: K. pneumoniae 42KC-108224-1; test: fluorescence assay on mature biofilms (SYTO 9 / propidium iodide); settings: 64 μg/mL in PBS, 24 h on 22 h-old biofilm; mean, n ≥ 3
Method: (§5) The proportion of living and dead bacteria was determined using the fluorescence assay FilmTracer™ LIVE/DEAD biofilm viability kit (L10316, Life Technologies GmbH, Darmstadt, Germany). A bacterial count of 2 × 10^7 CFU/mL was inoculated in 50% BHI broth, 100 μL were added to a 96-well plate in duplicate and plates were incubated for 22 h at 37°C. Wells containing only BHI broth were used as blank. After incubation, the supernatant was discarded and plates were washed three times with sterile PBS. […] After incubation for 24 h at 37°C and washing three times with sterile PBS, 50 μL filter-sterilized water containing 0.15 μL each of SYTO™ 9 stain and propidium iodide stain was added to each well. Plates were incubated for 20 min at room temperature in the dark. The staining solution was discarded and the plates were washed three times with sterile PBS. The fluorescence intensity of the SYTO™ 9 stain (λex = 470 nm, λem = 500 nm) and the propidium iodide stain (λex = 490 nm, λem = 635 nm) were measured on a BioTek Synergy H1 microplate reader and corrected for the blank values. The percentage of fluorescence intensity was calculated based on the negative control. The SYTO™ 9/propidium iodide ratio was calculated. The experiment was conducted at least three times.

[5] = test system: K. pneumoniae IMT40061; test: as above; settings: 24 h treatment of mature biofilm; at very high concentrations
Method: as §5

[6] = Klebsiella pneumoniae, 17349, EUCAST guidelines, microdilution test, read-out: MIC
[7] = Klebsiella pneumoniae, 42KC1082241, EUCAST guidelines, microdilution test, read-out: MIC
[8] = Klebsiella pneumoniae, IMT40061, EUCAST guidelines, microdilution test, read-out: MIC
[9] = Klebsiella pneumoniae, 42KC1082241
[10] = EUCAST guidelines, microdilution test

| SMILES | MIC [1, 6] | MIC [2, 7] | MIC [3, 8] | other results |
| --- | --- | --- | --- | --- |
| NCC[C@H](O)C(=O)N[C@@H]1C[C@H](N)[C@@H](O[C@H]2O[C@H](CN)[C@@H](O)[C@H](O)[C@H]2O)[C@H](O)[C@H]1O[C@H]1O[C@H](CO)[C@@H](O)[C@H](N)[C@H]1O [Amikacin] | < 0.5 µg/mL | < 0.5 µg/mL | 4 µg/mL (≈ 6.83 µM) | – |
| CC1(C)S[C@@H]2[C@H](NC(=O)[C@H](N)c3ccccc3)C(=O)N2[C@H]1C(=O)O [Ampicillin] | 16 µg/mL (≈ 45.8 µM) | > 32 µg/mL | > 32 µg/mL | – |
| C[C@H]1[C@H](NC(=O)/C(=N\OC(C)(C)C(=O)O)c2csc(N)n2)C(=O)N1S(=O)(=O)O [Aztreonam] | < 0.25 µg/mL | < 0.25 µg/mL | > 16 µg/mL | – |
| CO/N=C(\C(=O)N[C@@H]1C(=O)N2C(C(=O)O)=C(COC(C)=O)CS[C@H]12)c1csc(N)n1 [Cefotaxime] | < 0.0625 µg/mL | < 0.0625 µg/mL | > 8 µg/mL | – |
| CC(C)(O/N=C(\C(=O)N[C@@H]1C(=O)N2C(C(=O)[O-])=C(C[n+]3ccccc3)CS[C@H]12)c1csc(N)n1)C(=O)O [Ceftazidime] | < 0.25 µg/mL | < 0.25 µg/mL | > 32 µg/mL | – |
| CO/N=C(\C(=O)N[C@@H]1C(=O)N2C(C(=O)O)=C(COC(N)=O)CS[C@H]12)c1ccco1 [Cefuroxime] | 1 µg/mL (≈ 2.36 µM) | 2 µg/mL (≈ 4.71 µM) | > 32 µg/mL | – |
| O=C(O)c1cn(C2CC2)c2cc(N3CCNCC3)c(F)cc2c1=O [Ciprofloxacin] | – | – | > 4 µg/mL | MIC ([1]; Klebsiella pneumoniae, 17349): < 0.0312 µg/mL; MIC [2, 9]: 0.0625 µg/mL (≈ 0.189 µM) |
| CC[C@H](C)CCCCC(=O)N[C@@H](CCN)C(=O)N[C@H](C(=O)N[C@@H](CCN)C(=O)N[C@H]1CCNC(=O)[C@H]([C@@H](C)O)NC(=O)[C@H](CCN)NC(=O)[C@H](CCN)NC(=O)[C@H](CC(C)C)NC(=O)[C@@H](CC(C)C)NC(=O)[C@H](CCN)NC1=O)[C@@H](C)O [Colistin] (X1-[Dab]T[Dab][Dab][Dab][dL]L[Dab][Dab]T; lactam 4-C (inferred); N-terminus assumed) | – | – | – | MIC [1, 10]: 0.25 µg/mL (≈ 0.214 µM); MIC [2, 10]: 0.25 µg/mL (≈ 0.214 µM); MIC [3, 10]: < 0.0625 µg/mL |
| C[C@H]1c2cccc(O)c2C(=O)C2=C(O)[C@]3(O)C(=O)C(C(N)=O)=C(O)[C@@H](N(C)C)[C@@H]3[C@@H](O)[C@@H]21 [Doxycycline] | 0.5 µg/mL (≈ 1.13 µM) | 1 µg/mL (≈ 2.25 µM) | 4 µg/mL (≈ 9 µM) | – |
| CC[C@H]1OC(=O)[C@H](C)[C@@H](O[C@H]2C[C@@](C)(OC)[C@@H](O)[C@H](C)O2)[C@H](C)[C@@H](O[C@@H]2O[C@H](C)C[C@H](N(C)C)[C@H]2O)[C@](C)(O)C[C@@H](C)C(=O)[C@H](C)[C@@H](O)[C@]1(C)O [Erythromycin] | – | – | – | fluorescence intensity of propidium iodide in percent (dead cells) [4]: 64%; living biofilm mass (SYTO™ 9) [5]: 69% |
| CNC(C)C1CCC(N)C(OC2C(N)CC(N)C(OC3OCC(C)(O)C(NC)C3O)C2O)O1 (centres unmarked) [Gentamicin] | 0.25 µg/mL (≈ 0.523 µM) | < 0.125 µg/mL | 0.5 µg/mL (≈ 1.05 µM) | – |
| C[C@@H](O)[C@H]1C(=O)N2C(C(=O)O)=C(SCCN=CN)C[C@H]12 [Imipenem] | – | – | – | MIC ([1]; Klebsiella pneumoniae, 17349): < 0.125 µg/mL; MIC [2, 9]: < 0.125 µg/mL; MIC ([3]; Klebsiella pneumoniae, IMT40061): < 0.125 µg/mL |
